Results taken from publication PMC11434342, “Novel Autotaxin Inhibitor ATX-1d Significantly Enhances Potency of Paclitaxel—An In Silico and In Vitro Study” (Molecules, 2024).

What was measured:
[1] = target: T1, autotaxin (ATX) (Homo sapiens, UniProt Q13822); assay: biochemical; parameters: Inhibition of hydrolysis of fluorogenic lysophospholipid substrate FS-3 by recombinant human autotaxin, fluorescence read-out; settings: read-out: % inhibition in ATX assay at 10 µM
T1 construct: gene ENPP2; human recombinant ATX (hATX)
Method: Human recombinant ATX (hATX) was purified as previously described. The enzymatic activity of ATX was assessed by measuring the hydrolysis of the synthetic lipid-like FRET-based substrate FS-3 from Echelon Biosciences. Compounds predicted to have potential inhibitory effects through molecular docking were initially screened at a concentration of 10 μM. The reaction mixtures were prepared in 60 μL volumes and loaded into triplicate wells of black-wall 96-well plates. The assay buffer consisted of 50 mM Tris, 140 mM NaCl, 5 mM KCl, 1 mM CaCl2, 1 mM MgCl2, and 10 μM BSA, with the pH adjusted to 8.0. Each assay contained 4 nM ATX and 1 μM FS-3. The test compounds were diluted in an assay buffer and tested in technical triplicates. […] Fluorescence readings were taken at 2 min intervals over 1 h using excitation and emission wavelengths of 485 and 538 nm. Fluorescence data were collected as relative fluorescence units (RFUs) and averaged for the triplicate samples. A compound was considered an experimentally validated hit if it caused more than 50% inhibition of FS-3 hydrolysis at 10 µM concentration. For dose–response studies, nonlinear regression analysis was performed using GraphPad Prism (GraphPad Software, version 10.0.2 (232), San Diego, CA, USA). A variable four-parameter slope model was applied to fit the data, allowing for determining the Hill slope and interpolation of the IC50 ± SD. Fluorescence measurements were conducted using the CLARIOstar Plus plate reader from BMG Labtech (BMG Labtech, Ortenberg, Baden-Württemberg, Germany). Inhibition assays targeting the ATX-mediated hydrolysis of FS-3 were performed with 45 selected compounds, each at a fixed concentration of 10 μM. Compounds were classified as experimentally validated hits if they achieved more than 50% inhibition of the hydrolysis of the model lysophospholipase D substrate FS-3. From this initial screening, only one compound, ATX-1d, met this criterion (Supplementary Information, Table S1). ATX-1d was then subjected to a dose–response assay to determine its IC50 value (Figure 4). […] BMP-22, a previously validated inhibitor of ATX, was used as a control. The second replicate is shown in the Supplementary Information, Figure S2.

[2] = target: T1, autotaxin (ATX); assay: FS-3 fluorogenic substrate hydrolysis, dose-response with purified recombinant ATX ([…]); format: biochemical

Row | inhibition at 10 µM [1] | SMILES | IC50 [2]
1 | 5.8% | COC(=O)C1(c2ccc(Cl)cc2)OC(c2cccc(OC)c2)C2C(=O)N(c3ccccc3)C(=O)C21 (centres unmarked) [ATX-3f] | –
2 | 40.7% | COC(=O)C(OCCCCOC1=CC(=O)CC(C)(C)C1)c1cccc(Cl)c1 (centres unmarked) [ATX-4f] | –
3 | -5.76% | CCN1C(=O)C2C(c3cccc(F)c3)OC(C(=O)OC)(c3ccc(C(C)(C)C)cc3)C2C1=O (centres unmarked) [ATX-3h] | –
4 | 19% | CCC1=N[C@](C(=O)OC)(c2ccc(Br)cc2)[C@@H]2C(=O)N(C)C(=O)C12 (some centres unmarked) [ATX-2a] | –
5 | -0.48% | CCOC(=O)C1C(C(=O)OCC)C12C(=O)N(C(=O)OC(C)(C)C)c1ccc(Br)cc12 (centres unmarked) [ATX-5g] | –
6 | 33.6% | Cc1ccccc1C(OCCCCOC1=CC(=O)CC(C)(C)C1)C(=O)OCc1ccccc1 (centres unmarked) [ATX-4e] | –
7 | -19.6% | COC(=O)C(OCCCCOC1=CC(=O)CC(C)(C)C1)c1ccc(C(C)(C)C)cc1 (centres unmarked) [ATX-4c] | –
8 | 41.4% | COC(=O)C(OCCCCOC1=CC(=O)CC(C)(C)C1)c1cccc(F)c1 (centres unmarked) [ATX-4j] | –
9 | 32.6% | COC(=O)C(OCCCCOC1=CC(=O)CC(C)(C)C1)c1ccccc1 (centres unmarked) [ATX-4g] | –
10 | -30.1% | COC(=O)C1(c2ccccc2)OC(c2cccc(OC)c2)C2C(=O)N(c3ccccc3)C(=O)C21 (centres unmarked) [ATX-3g] | –
11 | 16.2% | COC(=O)C1(c2cccc(OC)c2)OC(c2cccc(Cl)c2)C2C(=O)N(Cc3ccccc3)C(=O)C21 (centres unmarked) [ATX-3j] | –
12 | -0.36% | CCOC(=O)/C(=C1\C(=O)N(C)C(=O)C1(c1ccccn1)C1CC(=O)N(C)C1=O)c1ccc(C)cc1 (centres unmarked) [ATX-1f] | –
13 | -4.52% | CCOC(=O)C1C(C(=O)OCC)C12C(=O)N(C(C)=O)c1ccccc12 (centres unmarked) [ATX-5c] | –
14 | 42.5% | COC(=O)/C(=C1\C(=O)N(C)C(=O)C1(c1ccccn1)C1CC(=O)N(C)C1=O)c1ccc(C(C)(C)C)cc1 (centres unmarked) [ATX-1a] | –
15 | 4.61% | CCN1C(=O)C2C(C)=N[C@](C(=O)OC)(c3cccc(OC)c3)[C@@H]2C1=O (some centres unmarked) [ATX-2d] | –
16 | 10.1% | CCC1=N[C@](C(=O)OC)(c2ccc(Br)cc2)[C@@H]2C(=O)N(CC)C(=O)C12 (some centres unmarked) [ATX-2e] | –
17 | -35.9% | COC(=O)C1(c2ccc(Cl)cc2)OC(c2ccc(F)cc2F)C2C(=O)N(c3ccccc3)C(=O)C21 (centres unmarked) [ATX-3c] | –
18 | 18.7% | COC(=O)C(OCCCCOC1=CC(=O)CC(C)(C)C1)c1ccc(Br)cc1 (centres unmarked) [ATX-4a] | –
19 | 12.6% | COC(=O)C(OCCCCOC1=CC(=O)CC(C)(C)C1)c1cccc(OC)c1 (centres unmarked) [ATX-4b] | –
20 | 13% | CCC1=N[C@](C(=O)OC)(c2cccc(OC)c2)[C@@H]2C(=O)N(C)C(=O)C12 (some centres unmarked) [ATX-2c] | –
21 | 10% | CCN1C(=O)CC(C2(c3ccccn3)C(=O)N(CC)C(=O)/C2=C(\C(=O)OC)c2ccc(F)cc2)C1=O (centres unmarked) [ATX-1i] | –
22 | 3.59% | CCN1C(=O)CC(C2(c3ccccn3)C(=O)N(CC)C(=O)/C2=C(\C(=O)OC)c2ccccc2)C1=O (centres unmarked) [ATX-1b] | –
23 | -10.2% | CCOC(=O)C1C(C(=O)OCC)C12C(=O)N(C(C)=O)c1ccc(C)cc12 (centres unmarked) [ATX-5j] | –
24 | 7.6% | CCN1C(=O)CC(C2(c3ccccn3)C(=O)N(CC)C(=O)/C2=C(\C(=O)OC)c2cccc(OC)c2)C1=O (centres unmarked) [ATX-1h] | –
25 | -37.4% | COC(=O)C1(c2ccccc2)OC(c2cccc(F)c2)C2C(=O)N(c3ccccc3)C(=O)C21 (centres unmarked) [ATX-3i] | –
26 | – | CCCCCCCCCCCCCCCc1ccc(CP(=O)(O)O)cc1 [BMP-22, reference compound] | 200 ± 100 nM
27 | 24.9% | CCC1=N[C@](C(=O)OC)(c2ccc(Br)cc2)[C@@H]2C(=O)N(Cc3ccccc3)C(=O)C12 (some centres unmarked) [ATX-2b] | –
28 | 3.38% | CCC1=N[C@](C(=O)OC)(c2ccccc2)[C@@H]2C(=O)N(Cc3ccccc3)C(=O)C12 (some centres unmarked) [ATX-2g] | –

Row | SMILES | inhibition at 10 µM [1] | IC50 [2]
29 | COC(=O)C(OCCCCOC1=CC(=O)CC(C)(C)C1)c1cccc(C(F)(F)F)c1 (centres unmarked) [ATX-4i] | 15.2% | –
